In US20170108514A1, “DIAGNOSIS OF MULTIPLE SCLEROSIS IN HUMAN AND ANIMAL SUBJECTS” (THE REGENTS OF THE UNIVERSITY OF COLORADO, a body corporate, priority 2014, published 2017):
Counter-ions that a name gives are not always drawn.

Key:
[1] = system: multiple sclerosis patients; details: human, in vivo; cited from earlier work
[2] = system: multiple sclerosis patients; details: cited from earlier work; for relapses / attacks: clinical reports; for relapses / attacks / disease / disability progression / MRI / MRI lesions: MS patients
[3] = system: Th40 cells from MS subjects; assay: Antigen assay: proliferation of CFSE-labeled T cells (Th40) exposed to autologous APC/peptide antigen for 7 days; format: cell-based, human
[4] = DR4 co-expressed with DR2, antigen 5 μg/ml
[5] = DR4 co-expressed with DR6, antigen 5 μg/ml
[6] = DR6 a fixed allele, any haplotype at other allele, antigen 5 μg/ml
[7] = RRMS subjects, DR2 at one allele, other allele any haplotype, antigen 5 μg/ml
[8] = DR2 and DR6 co-expressed, antigen 5 μg/ml
[9] = DR6 at both alleles, antigen 5 μg/ml
[10] = DR4 expressing MS subjects, open second allele, antigen 5 μg/ml

For C/C(O)=C(\C#N)C(=O)Nc1ccc(C(F)(F)F)cc1 [Aubagio, teriflunomide], the safety in patients [1] is listed as “moderate potential for hepatotoxicity”.
In the case of CCCCCCCCc1ccc(CCC(N)(CO)CO)cc1 [Gilenya, fingolimod], the safety in patients [1] is listed as “extremely immune-suppressive”.
For O=C1c2c(O)ccc(O)c2C(=O)c2c(NCCNCCO)ccc(NCCNCCO)c21 [Novantrone, mitoxantrone], the relapses / attacks [2] is given as “lessens relapses” and the “disease / disability progression” value ([2]; reports) is given as “slows progression”.
In the case of COC(=O)/C=C/C(=O)OC [Tecfidera, dimethyl fumarate], the relapses / attacks [2] is listed as “some reduction in the average annual number of relapses” and the “disease / disability progression” value ([2]; reports) is listed as “not reduced significantly”.
In the case of “ADPGSRPHLIRLFSRDAPGR [MBP83, MS associated peptide antigen from MBP]”, the “antigen response by Th40 cells” value [3, 4] is reported as “diminished”, the “antigen response by Th40 cells” value [3, 5] is reported as “increased” and the “antigen response by Th40 cells” value [3, 6] is reported as “best response”. For the same compound, the “antigen response by Th40 cells” value [3, 7] was “least reactive”.
For “AQGTLSKIFKLGGRDSRSGSPMARR [MBP146, MS associated peptide antigen from MBP]”, the “antigen response by Th40 cells” value [3, 8] was “no response” and the “antigen response by Th40 cells” value [3, 9] was “worst response antigen”.
In the case of “FFRDHSYQE [MOG99, MS associated peptide antigen from MOG]”, the “antigen response by Th40 cells” value [3, 8] is reported as “significantly less response”, the “antigen response by Th40 cells” value [3, 4] is reported as “remains high” and the “antigen response by Th40 cells” value [3, 5] is reported as “unaffected”. The “antigen response by Th40 cells” value [3, 10] was “responded” and the “antigen response by Th40 cells” value [3, 7] was “best antigen response”.
For Glatiramer acetate [Copaxone], the relapses / attacks [2] is given as “decreasing frequency and severity of attacks” and the “MRI / MRI lesions” value ([2]; reports) is given as “no reports of changes in MRI lesions”.
For “LVERGNHSKIVAGVLGLI [PLP103, MS associated peptide antigen from PLP]”, the “antigen response by Th40 cells” value [3, 8] was “significantly greater than the remaining antigens tested”, the “antigen response by Th40 cells” value [3, 10] was “equally” and the “antigen response by Th40 cells” value [3, 6] was “best response”. The “antigen response by Th40 cells” value [3, 9] was “best Th40 response”.
In the case of “MEVGWYRPPFSRVVHLYRNGK [MOG35, MS associated peptide antigen from MOG]”, the “antigen response by Th40 cells” value [3, 8] is reported as “prominent response antigen” and the “antigen response by Th40 cells” value [3, 10] is reported as “very little response”.
For Natalizumab [Tysabri], the “MRI / MRI lesions” value ([2]; reports) is listed as “some positive effects on MRI”, the “disease / disability progression” value ([2]; reports) is listed as “slow progression” and the “reduction in relapse rate” value ([2]; reports, MS subjects, IV infusion once every four weeks) is listed as “two-thirds”.
For alemtuzumab [Lemtrada], the safety in patients [1] is given as “significantly increases the risk for opportunistic infections”.
